Source: paper PMC8999677, “Critical Assessment of a Structure-Based Screening Campaign for IDO1 Inhibitors: Tips and Pitfalls” (International Journal of Molecular Sciences, 2022)
Values belong to the compound of their own block, whether it stands above or below them.

Experiments:
[1] = biological target: fluorescently labelled rhIDO1 (NT650-IDO1) (Homo sapiens, UniProt P14902); assay: Single-point MST binding assay at 250 µM; conditions: 250 µM compound, 50 nM labelled rhIDO1; F-norm outside vehicle signal and SD
Chain of fluorescently labelled rhIDO1 (NT650-IDO1) (P14902 whole entry): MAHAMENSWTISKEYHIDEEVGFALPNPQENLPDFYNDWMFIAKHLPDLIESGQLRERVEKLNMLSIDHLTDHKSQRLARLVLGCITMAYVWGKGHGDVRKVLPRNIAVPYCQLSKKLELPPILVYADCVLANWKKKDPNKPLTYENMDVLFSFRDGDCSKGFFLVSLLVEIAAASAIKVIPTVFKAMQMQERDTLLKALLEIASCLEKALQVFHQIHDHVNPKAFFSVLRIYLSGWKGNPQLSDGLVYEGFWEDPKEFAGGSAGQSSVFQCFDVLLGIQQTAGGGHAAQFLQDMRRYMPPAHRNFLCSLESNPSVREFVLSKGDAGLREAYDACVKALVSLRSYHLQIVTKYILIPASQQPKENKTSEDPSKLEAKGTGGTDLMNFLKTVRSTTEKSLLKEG

P1.HTR cells = assay: Cytotoxicity seen in the P1.HTR cellular assay; type: cell-based, mouse; conditions: 30 µM, data not shown
Procedure: Accordingly, no correlation could be found between cellular activities and enzymatic binding data of tested compounds.
A cellular assay was performed to assess the functional activity of confirmed hit compounds against IDO1. Briefly, P1.HTR cells, a highly transfectable clonal variant of mouse mastocytoma P815 [59], were cultured in Iscove’s modified Dulbecco’s medium supplemented with 10% fetal calf serum (FCS), 1 mM glutamine and penicillin/streptomycin at 37 °C in a humidified 7% CO2 incubator. P1.HTR cells were transfected by electroporation with plasmid constructs coding for murine IDO1 (P1.IDO1). A stable transfectant cell line was obtained by puromycin selection. Cells at the concentration of 0.25 × 10^6 cell/mL were incubated with 30 µM of compounds for 16 h, using a culture medium containing L-Trp at a concentration of 78.4 µM and a HEPES buffer at pH 7.2.

[2] = biological target: recombinant human IDO1 (rhIDO1) (Homo sapiens, UniProt P14902); assay: Full-point MST binding assay against labelled rhIDO1; conditions: for BEI (binding efficiency index): BEI = pKd/MW (kDa)
Chain of recombinant human IDO1 (rhIDO1) (P14902 whole entry): as above

murine IDO1 = biological target: T1, murine IDO1 (Mus musculus, UniProt P28776); assay: Cellular assay of IDO1 inhibition, L-Kyn production in P1.HTR cells; type: cell-based; conditions: 16 h; for FC L-Kyn (fold change of L-Kyn production): 30 µM compound, P1.HTR cells stably transfected with murine IDO1, versus vehicle, mean ± SD
T1 construct: expressed in transfected cells
T1 sequence (P28776 whole entry): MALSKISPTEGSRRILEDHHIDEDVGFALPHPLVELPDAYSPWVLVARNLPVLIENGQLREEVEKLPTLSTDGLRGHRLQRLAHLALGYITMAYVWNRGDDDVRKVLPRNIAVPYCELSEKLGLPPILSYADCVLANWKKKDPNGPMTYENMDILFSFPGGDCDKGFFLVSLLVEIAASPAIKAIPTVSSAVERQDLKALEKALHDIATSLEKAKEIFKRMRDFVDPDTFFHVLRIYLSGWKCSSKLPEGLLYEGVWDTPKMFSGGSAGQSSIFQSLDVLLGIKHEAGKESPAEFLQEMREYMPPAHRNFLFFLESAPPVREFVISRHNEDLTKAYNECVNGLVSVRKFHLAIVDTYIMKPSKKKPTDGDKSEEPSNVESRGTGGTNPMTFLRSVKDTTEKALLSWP
Procedure: The functional activity of confirmed IDO1 ligands was estimated in murine mastocytoma cell line (P1.HTR) stably transfected with murine IDO1. Specifically, P1.HTR cells were cultured in presence of each compound at 30 µM concentration.
Briefly, P1.HTR cells, a highly transfectable clonal variant of mouse mastocytoma P815 [59], were cultured in Iscove’s modified Dulbecco’s medium supplemented with 10% fetal calf serum (FCS), 1 mM glutamine and penicillin/streptomycin at 37 °C in a humidified 7% CO2 incubator. P1.HTR cells were transfected by electroporation with plasmid constructs coding for murine IDO1 (P1.IDO1). A stable transfectant cell line was obtained by puromycin selection.
A cell culture incubated with an equivalent volume of DMSO (the vehicle in which compounds were solubilized) was used as a reference control. After the incubation, supernatants of cell cultures were recovered, and kynurenine concentration was detected by the HPLC method. Every cell assay was conducted in triplicate. Results were expressed as the mean ± standard deviation of the kynurenine fold change (L-Kyn FC), meaning the ratio between kynurenine concentration secreted in the supernatant of the compound-treated versus vehicle-treated cells. The detection of L-Kyn concentrations was performed by using a PerkinElmer, series 200 HPLC instrument. A Kinetex C18 column (250 × 4.6 mm, 5 μm, 100 A; Phenomenex, CA, USA), maintained at the temperature of 25 °C and a pressure of 1800 PSI, was used. […] L-Kyn was detected at 360 nm by an UV detector. The software TURBOCHROM 4 was used for evaluating the concentration of L-Kyn in samples by means of a calibration curve. The detection limit of the analysis was 0.05 μM.

[3] = Potentiometric logP determination (Sirius T3); type: physicochemical; conditions: for logP: n-octanol/ISA water biphasic system, read-out: explogP
Source text: (§1) Confirmed IDO1 ligands were profiled for the calculation and experimental determination of their acidic constant (calcpKa, exppKa) and n-octanol/water partition coefficient (calclogP, explogP). […] Four of these compounds (19–22) were titrated with a potentiometric method to determine the relative exppKa and explogP, using a Sirius T3 instrument. The remaining two compounds (16, 17) were not experimentally analyzed because their calcpKa values were too close to the upper detection limit of the Sirius T3 instrument.
(§2) Acidic constants (pKa) and octanol/water partition coefficients (logP) of confirmed hit compounds were firstly calculated using the pKa and logP plugins of the program Marvin (Marvin v20.11, ChemAxon, Budapest, Hungary).
(§3) The experiments were set up with Sirius T3 control software (Sirius T3 v1.1.3.0, Pion Inc. Ltd., Forest Row, East Sussex, UK), specifying the volume of the stock solution to be used, molecular weight, number of expected pKa and their calculated values (calcpKa), predicted logP (calclogP), and titration mode (from pH = 2 to 12 for basic compounds, and from pH = 12 to 2 for acidic compounds). To avoid issues of poor solubility during the titration in ISA water, the pKa analyses were carried out in triplicate with different ratios of organic cosolvent methanol and water (50%, 40%, and 30% methanol). Considering the modification of water’s dielectric constant in the presence of an organic solvent, the pKa at 0% of co-solvent was obtained through the method of Yasuda–Shedlovsky (YS) extrapolation to zero [58]. The validity of the analysis was assessed with the r^2 of the YS method, and results were considered acceptable with an r^2 ≥ 0.9. Titration results were analyzed with Sirius T3 refine software (Sirius T3 v1.1.3.0, Pion Inc. Ltd., Forest Row, East Sussex, UK). Octanol/water partition coefficient (logP) was measured through a potentiometric titration in a biphasic system, using ISA water and n-octanol. Specifically, Sirius T3 control software uses three evaluation models of experimental logP, whose choice is based on the calculated logP values (calclogP < 1, “Low-logP” method; 1 < calclogP < 3, “Medium-logP” method; calclogP > 3, “High-logP” method). Accordingly, the “Medium-logP” method was selected to evaluate the experimental logP (explogP) of the selected compounds. The titration was performed in triplicate and the raw data were elaborated using Sirius T3 refine software. The quality of the analysis was evaluated by comparing the titration curve of each analysis by calculating a root mean square deviation (RMSD). All the analysis yielded RMSD values < 0.5.

[4] = Potentiometric pKa determination (Sirius T3); type: physicochemical; conditions: for exppKa: Sirius T3, Yasuda-Shedlovsky extrapolation to 0% methanol, first or only value
Source text: as §1, §2, §3

Structure (SMILES): NC(=O)Cn1c(/C=C/c2ccccc2)nc2ccccc21 [VIS539]
Single-point MST classification [1]: false positive hit compound

Structure (SMILES): O=C1Nc2ccccc2/C1=C/C(=O)c1ccccc1 [VIS540 (16)]
Cytotoxicity (P1.HTR cells): cytotoxic | Single-point MST classification [1]: binders | Kd [2]: 37.5 ± 11.5 µM | BEI (binding efficiency index) [2]: 18

Structure (SMILES): O=C(/C=C/c1ccco1)c1ccc(O)cc1 [VIS574 (22)]
logP [3]: 2.6 | exppKa [4]: 7.8 | Kd [2]: 37 ± 16.8 µM | BEI (binding efficiency index) [2]: 21

Structure (SMILES): OC(CC1c2ccccc2-c2cncn21)C1CCCCC1 (stereo not drawn) [compound 10, NLG919 analogue, reference compound]
explogP ([3]; n-octanol/water): 3.2 | exppKa [4]: 6.7

Now from value to compound:

FC L-Kyn (fold change of L-Kyn production) (murine IDO1): 0.55 ± 0.02 | Single-point MST classification [1]: binders | Kd [2]: 59.3 ± 22.9 µM | BEI (binding efficiency index) [2]: 16
Structure (SMILES): CN(C(=O)Nc1c[nH]c2ccccc12)c1ccccc1 [VIS544 (17)]

Inhibition in P1.HTR cells (in words) (murine IDO1; 30 µM): weak inhibitor | Single-point MST classification [1]: binders | Kd [2]: 4.83 ± 0.61 µM | BEI (binding efficiency index) [2]: 19
Structure (SMILES): O=C(NC1CCC(F)(F)CC1)c1ccc2cc[nH]c2c1 [VIS557 (18)]

logP [3]: 2.1 | exppKa [4]: 8.1 | Single-point MST classification [1]: binders | Kd [2]: 51.9 ± 18.4 µM | BEI (binding efficiency index) [2]: 16
Structure (SMILES): O=C(Nc1nnc(-c2ccc(Cl)cc2)o1)C1CC1 [VIS572 (19)]

logP [3]: 1.9 | exppKa [4]: 5.7 | Single-point MST classification [1]: binders | Kd [2]: 80.7 ± 10.6 µM | BEI (binding efficiency index) [2]: 15
Structure (SMILES): NC(=O)C1CCN(c2ccc3cccc(O)c3n2)CC1 [VIS580 (20)]

logP [3]: 2 | exppKa [4]: 3.9 | exppKa (second value) ([4]; Sirius T3, value printed after the slash): 6.3 | FC L-Kyn (fold change of L-Kyn production) (murine IDO1): 0.56 ± 0.05 | Single-point MST classification [1]: binders | Kd [2]: 73.3 ± 16.2 µM | BEI (binding efficiency index) [2]: 14
Structure (SMILES): O=C(NCc1ccccn1)c1nn[nH]c1-c1ccc(F)cc1 [VIS597 (21)]
